PMC7932555, “A diffusible signal factor of the intestine dictates Salmonella invasion through its direct control of the virulence activator HilD” (PLoS Pathogens, 2021)

Test system: sipB::lacZY
Experiment: sipB::lacZY reporter β-galactosidase assay in strains expressing wild type or mutant HilD
Assay type: cell-based
Conditions: 20 μM fatty acid (mix: 20 μM of each)
Excerpt: To test the effect of mutations in hilD, we initially constructed a background Salmonella strain without chromosomal hilC, rtsA and hilD and fused sipB to lacZY to assess SPI-1 expression. hilD with a C-terminal 3XFLAG tag was cloned into pWSK29 under control of the tetRA promoter for tetracycline-inducible expression. This plasmid was subjected to site-directed mutagenesis at specific nucleotides to change selected amino acids to alanine, using the Agilent QuikChange II Site-Directed Mutagenesis kit following their protocol. Mutations were confirmed by DNA sequencing.
Salmonella strains were inoculated into LB buffered with 100 mM MOPS [3-(N-morpholino) propanesulphonic acid] pH 6.7, with necessary antibiotics, and fatty acids or control solvents to be tested. Cultures were incubated at 37° C without aeration overnight, and assays were performed using an established protocol.

[1] = strain expressing wild type HilD

`CCCCCCCCC/C=C\C(=O)O` [c2-DDA, cis-2-dodecenoic acid] was tested, and the “repression of sipB expression” value (strain expressing HilD K293A) was “no significant reduction”, the “repression of sipB expression” value (strain expressing HilD K294A) was “no significant reduction” and the “repression of sipB expression” value [1] was 4.1 fold.
`CCCCCCCCCCC/C=C\CCCCCCC(=O)O` [c8-EA, cis-8-eicosenoic acid] was tested, and the “repression of sipB expression” value (strain expressing HilD K293A) was “continued to repress sipB expression” and the “repression of sipB expression” value (strain expressing HilD K294A) was “continued to repress sipB expression”.
`CCCCCCCC/C=C\CCCCCCCC(=O)O` [oleic acid, cis-9-octadecenoic acid] was tested, and the “repression of sipB expression” value (strain expressing HilD K43A) was “no longer had a repressive effect”, the “repression of sipB expression” value (strain expressing HilD K293A) was “continued to repress sipB expression” and the “repression of sipB expression” value (strain expressing HilD K294A) was “continued to repress sipB expression”. The “repression of sipB expression” value (strain expressing HilD Q290A) was “no longer had a repressive effect” and the “repression of sipB expression” value [1] was 3.7 fold.
